Calls of active or inactive are those of the source. The calls are words filed in the database; no cut-off is given here.
Assays:
HepG2 [1] = experiment: Antitumor activity against human HepG2 cells xenografted in Balb/C mouse assessed as inhibition of tumor growth at 8 mg/kg, iv dosed once per week for 30 days followed by 2 weeks observation relative untreated control; type: functional; conditions: read-out: TGI
SMMC-7721 = experiment: Cytotoxicity in human SMMC7721 cells assessed as reduction in cell viability incubated for 48 hrs by MTT assay; type: functional, cell-based; conditions: SMMC-7721, 48 h
HepG2 [2] = experiment: Antitumor activity against human HepG2 cells xenografted in Balb/C mouse assessed as inhibition of tumor growth at 30 mg/kg, iv dosed once per week for 30 days followed by 2 weeks observation relative untreated control; type: functional; conditions: read-out: TGI
MDA-MB-231 = experiment: Cytotoxicity in human MDA-MB-231 cells assessed as reduction in cell viability incubated for 48 hrs by MTT assay; type: functional, cell-based; conditions: MDA-MB-231, 48 h
HepG2 [3] = experiment: Antitumor activity against human HepG2 cells xenografted in Balb/C mouse assessed as inhibition of tumor growth at 4 mg/kg, iv dosed once per week for 30 days followed by 2 weeks observation relative untreated control; type: functional; conditions: read-out: TGI
Mus musculus [4] = experiment: Toxicity in human HepG2 cells xenografted Balb/C mouse assessed as reduction in body weight at 1.3 mg/kg, po qd for 30 days followed by 2 weeks observation; type: organism-based; conditions: in vivo, 336 h
Mus musculus [5] = experiment: Toxicity in human HepG2 cells xenografted Balb/C mouse assessed as effect on mouse survival at 8 mg/kg, iv dosed once per week for 30 days followed by 2 weeks observation; type: organism-based; conditions: in vivo, 336 h
Mus musculus [6] = experiment: Toxicity in human HepG2 cells xenografted Balb/C mouse assessed as effect on mouse survival at 4 mg/kg, iv dosed once per week for 30 days followed by 2 weeks observation; type: organism-based; conditions: in vivo, 336 h
HepG2 [7] = experiment: Antitumor activity against human HepG2 cells xenografted in Balb/C mouse assessed as inhibition of tumor growth at 1.3 mg/kg, po qd for 30 days followed by 2 weeks observation relative untreated control; type: functional; conditions: read-out: TGI
HepG2 [8] = experiment: Cytotoxicity in human HepG2 cells assessed as reduction in cell viability incubated for 48 hrs by MTT assay; type: functional, cell-based; conditions: HepG2, 48 h
Mus musculus [9] = experiment: Toxicity in human HepG2 cells xenografted Balb/C mouse assessed as reduction in body weight at 4 mg/kg, iv dosed once per week for 30 days followed by 2 weeks observation; type: organism-based; conditions: in vivo, 336 h
KB = experiment: Cytotoxicity in human KB cells assessed as reduction in cell viability incubated for 48 hrs by MTT assay; type: functional, cell-based
Mus musculus [10] = experiment: Toxicity in human HepG2 cells xenografted Balb/C mouse assessed as effect on mouse survival at 1.3 mg/kg, po qd for 30 days followed by 2 weeks observation; type: organism-based; conditions: in vivo, 336 h
[11] = Drug metabolism in plasma of C57BL/6 mouse assessed as (S)-8-Ethyl-8-hydroxy-2-isopropyl-8H-oxazolo[4,5-f ]-pyrano[3',4':6,7]indolizino[1,2-b]quinoline-9,12(11H,14H)-dione formation at 10 mg/kg, po measured up to 1 hr by LC-MS/MS analysis; type: ADME, organism-based; conditions: in vivo
[12] = Drug metabolism in plasma of C57BL/6 mouse assessed as (9S)-9-Ethyl-9-hydroxy-3-isopropyl-2,3-dihydro[1,3]-oxazino[5,6-f ]pyrano[3',4':6,7]indolizino[1,2-b]quinoline-1,10,13(9H,12H,15H)-trione formation at 10 mg/kg, iv measured up to 1 hr by LC-MS/MS analysis; type: ADME, organism-based; conditions: in vivo
QGY-7703 = experiment: Cytotoxicity in human QGY7703 cells assessed as reduction in cell viability incubated for 48 hrs by MTT assay; type: functional, cell-based; conditions: QGY-7703, 48 h
Mus musculus [13] = experiment: Toxicity in human HepG2 cells xenografted Balb/C mouse assessed as induction of gastrointestinal flatulence at 4 mg/kg, iv dosed once per week for 30 days followed by 2 weeks observation; type: organism-based; conditions: in vivo, 336 h
MCF7 = experiment: cells; conditions: Homo sapiens, MCF7, 48 h
Description: Cytotoxicity in human MCF7 cells assessed as reduction in cell viability incubated for 48 hrs by MTT assay

[14] = Drug level in plasma of C57BL/6 mouse at 10 mg/kg, po measured up to 30 hrs by LC-MS/MS analysis; type: ADME, organism-based; conditions: in vivo
MGC-803 = experiment: Cytotoxicity in human MGC803 cells assessed as reduction in cell viability incubated for 48 hrs by MTT assay; type: functional, cell-based; conditions: MGC-803, 48 h
A549 = experiment: cells; conditions: Homo sapiens, A549, 48 h
Description: Cytotoxicity in human A549 cells assessed as reduction in cell viability incubated for 48 hrs by MTT assay

SK-N-SH = experiment: Cytotoxicity in human SK-N-SH cells assessed as reduction in cell viability incubated for 48 hrs by MTT assay; type: functional, cell-based
Bel-7402 = experiment: Cytotoxicity in human Bel7402 cells assessed as reduction in cell viability incubated for 48 hrs by MTT assay; type: functional, cell-based; conditions: Bel-7402, 48 h
Mus musculus [15] = experiment: Toxicity in human HepG2 cells xenografted Balb/C mouse assessed as induction of gastrointestinal flatulence at 8 mg/kg, iv dosed once per week for 30 days followed by 2 weeks observation; type: organism-based; conditions: in vivo, 336 h
SGC-7901 = experiment: Cytotoxicity in human SGC7901 cells assessed as reduction in cell viability incubated for 48 hrs by MTT assay; type: functional, cell-based; conditions: SGC-7901, 48 h
Mus musculus [16] = experiment: Toxicity in human HepG2 cells xenografted Balb/C mouse assessed as induction of gastrointestinal flatulence at 1/3 mg/kg, po qd for 30 days followed by 2 weeks observation; type: organism-based; conditions: in vivo, 336 h
Mus musculus [17] = experiment: Protection against LPS-induced lethal inflammation in C57BL/6 mouse model of sepsis assessed as survival at 4 mg/kg, po dosed 0.5 hrs before LPS injection followed by 4 mg/kg, po dosing at 1 hr, 4 hrs, and 8 hrs after LPS treatment; type: functional
[18] = Drug metabolism in plasma of C57BL/6 mouse assessed as (9S)-9-Ethyl-9-hydroxy-3-isopropyl-2,3-dihydro[1,3]-oxazino[5,6-f ]pyrano[3',4':6,7]indolizino[1,2-b]quinoline-1,10,13(9H,12H,15H)-trione formation at 10 mg/kg, po measured up to 1 hr by LC-MS/MS analysis; type: ADME, organism-based; conditions: in vivo
Mus musculus [19] = experiment: Toxicity in human HepG2 cells xenografted Balb/C mouse assessed as reduction in body weight at 8 mg/kg, iv dosed once per week for 30 days followed by 2 weeks observation; type: organism-based; conditions: in vivo, 336 h
Mus musculus [20] = experiment: Toxicity in Balb/C mouse administered as daily dose for 1 week measured daily for up to 28 days; type: organism-based; conditions: in vivo
[21] = target: T1, DNA topoisomerase 1 (Homo sapiens) (UniProt P11387); experiment: Inhibition of human recombinant topoisomerase-1-mediated DNA cleavage in at 100 uM using supercoiled pHOT-1 DNA incubated for 30 mins by ethidium bromide staining based agarose gel elctrophoresis method
T1 sequence (whole entry): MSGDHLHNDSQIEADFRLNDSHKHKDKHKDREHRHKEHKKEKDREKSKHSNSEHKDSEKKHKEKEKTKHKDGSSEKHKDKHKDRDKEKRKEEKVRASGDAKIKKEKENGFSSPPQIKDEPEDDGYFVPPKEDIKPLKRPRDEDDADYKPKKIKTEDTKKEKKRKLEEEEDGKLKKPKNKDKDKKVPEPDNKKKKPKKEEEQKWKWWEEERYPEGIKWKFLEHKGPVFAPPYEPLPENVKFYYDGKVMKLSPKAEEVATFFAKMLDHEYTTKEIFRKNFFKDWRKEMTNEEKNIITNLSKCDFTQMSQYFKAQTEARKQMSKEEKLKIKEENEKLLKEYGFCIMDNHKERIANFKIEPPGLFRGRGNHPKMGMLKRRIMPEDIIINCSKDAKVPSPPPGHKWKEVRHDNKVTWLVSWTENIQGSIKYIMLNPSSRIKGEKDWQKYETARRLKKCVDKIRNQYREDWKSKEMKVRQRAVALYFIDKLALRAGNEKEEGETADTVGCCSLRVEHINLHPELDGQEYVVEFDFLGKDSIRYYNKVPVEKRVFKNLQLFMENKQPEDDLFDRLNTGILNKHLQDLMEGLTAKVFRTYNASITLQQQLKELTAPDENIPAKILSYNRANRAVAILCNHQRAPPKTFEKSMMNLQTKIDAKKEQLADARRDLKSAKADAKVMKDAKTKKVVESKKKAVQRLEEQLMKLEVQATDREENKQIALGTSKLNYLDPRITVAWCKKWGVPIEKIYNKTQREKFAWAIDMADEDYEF

HepG2 [22] = experiment: Antitumor activity against human HepG2 cells xenografted in Balb/C mouse assessed as inhibition of tumor growth at 2 mg/kg, iv dosed once per week for 30 days followed by 2 weeks observation relative untreated control; type: functional; conditions: read-out: TGI
[23] = Aqueous solubility of the compound; type: physicochemical; conditions: aqueous; read-out: solubility
Mus musculus [24] = experiment: Toxicity in human HepG2 cells xenografted Balb/C mouse assessed as reduction in body weight at 2 mg/kg, iv dosed once per week for 30 days followed by 2 weeks observation; type: organism-based; conditions: in vivo, 336 h
HepG2 [25] = experiment: Antitumor activity against human HepG2 cells xenografted in Balb/C mouse assessed as inhibition of tumor growth at 2 mg/kg, iv dosed once per week for 30 days followed by 2 weeks observation; type: functional, organism-based
[26] = target: T1, DNA topoisomerase 1 (Homo sapiens); experiment: Inhibition of human recombinant topoisomerase-1-mediated DNA cleavage in at 50 uM using supercoiled pHOT-1 DNA incubated for 30 mins by ethidium bromide staining based agarose gel elctrophoresis method

Structure (SMILES): CC[C@@]1(OC(=O)CNC(=O)CCC(=O)O)C(=O)OCc2c1cc1n(c2=O)Cc2cc3c4c(ccc3nc2-1)OC(C(C)C)NC4=O (stereo not given in full)
- inhibition in vivo at 8 mg/kg (HepG2 [1]): 93%
- IC50 (SMMC-7721): > 10 µM
- inhibition in vivo at 30 mg/kg (HepG2 [2]): 90%
- IC50 (MDA-MB-231): 5.02 µM
- inhibition in vivo at 4 mg/kg (HepG2 [3]): 83%
- Activity (Mus musculus [4]): Non-Toxic
- Activity (Mus musculus [5]): Non-Toxic
- Activity (Mus musculus [6]): Non-Toxic
- inhibition in vivo at 1.3 mg/kg (HepG2 [7]): 93%
- IC50 (HepG2 [8]): 971 nM
- Activity (Mus musculus [9]): Non-Toxic
- IC50 (KB): 7.28 µM
- Activity (Mus musculus [10]): Non-Toxic
- Drug metabolism [11]: Metabolite_Notdetected
- Drug metabolism [12]: Metabolite_Notdetected
- IC50 (QGY-7703): > 10 µM
- Activity (Mus musculus [13]): Toxic
- IC50 (MCF7): > 10000 nM
- Drug uptake [14]: Not Active
- IC50 (MGC-803): 971 nM
- IC50 (A549): 6.47 µM
- IC50 (SK-N-SH): 194 nM
- IC50 (Bel-7402): > 10 µM
- Activity (Mus musculus [15]): Toxic
- IC50 (SGC-7901): > 10 µM
- Activity (Mus musculus [16]): Toxic
- Activity (Mus musculus [17]): 100%
- Drug metabolism [18]: Metabolite_Notdetected
- Activity (Mus musculus [19]): Non-Toxic

Structure (SMILES): CC[C@@]1(O)C(=O)OCc2c1cc1n(c2=O)Cc2cc3c(CN(C)C)c(O)ccc3nc2-1 [TOPOTECAN]
- IC50 (SMMC-7721): 11.6 µM
- IC50 (MDA-MB-231): 1.9 µM
- MTD (Mus musculus [20]): 2 mg/kg
- inhibition [21]: Active
- inhibition in vivo at 2 mg/kg (HepG2 [22]): 74%
- IC50 (HepG2 [8]): 237 nM
- solubility [23]: < 1000 µg/mL
- Activity (Mus musculus [24]): Toxic
- IC50 (QGY-7703): 11.9 µM
- IC50 (MCF7): 2140 nM
- IC50 (MGC-803): 190 nM
- IC50 (SK-N-SH): 93 nM
- IC50 (Bel-7402): 7.12 µM
- TGI (HepG2 [25]): Active
- inhibition [26]: Active
- IC50 (SGC-7901): > 10 µM

Source: ChEMBL document CHEMBL4196217, “Structure-Based Drug Design and Identification of H2O-Soluble and Low Toxic Hexacyclic Camptothecin Derivatives with Improved Efficacy in Cancer and Lethal Inflammation Models in Vivo” (J Med Chem, 2018)
